Data reported in patent US8765946B2, “Methods of preparing and using quinazoline and quinoline derivatives” (priority 2006, dated 2014).

Columns and labels:
[1] = target: T1, A431 cells EGFR-TK phosphorylation stimulated by EGF (Homo sapiens, UniProt P00533); assay: Inhibition of cellular EGFR-TK phosphorylation stimulated by EGF in A431 cells; assay type: cell-based; settings: for inhibition at 3 µM: A-431, concentration of 3 μM, A431 cells, EGF stimulated, one-time measurement at a single concentration (preliminary selection), NA = No activity, read-out: Inhibition Percent (%)
T1 construct: against A431 cells EGFR-TK; endogenous in cells; host or cells: A431 cells
Procedure: Inhibition Experiment of Cellular Epidermal Growth Factor Receptor Tyrosine Kinase
1) A431 cells were cultured in a medium which was prepared by adding 10% FCS into another medium comprising 50% DMEM and 50% F12.
2) A431 cells grown in six-well plates were cultured in a serum-free medium for 24 hours. During the 24 hour period the medium was replenished once after 12 hours.
3) A solution containing a compound to be assessed was added the A431 cells and the cells were cultured for 2 hours, supplemented twice by a medium free of the compound, and then EGF (100 ng/well) was added, and cultured for 5 minutes.
4) A431 cell homogenate was prepared by Laemili buffer which comprised 2% sodium dodecyl sulfonate (SDS), 5% 2-mercaptoethanol, 10% glycerol and 5 mM Tris (pH 6.8).
(§1) 5) The A431 cell homogenate was heated for 5 minutes at 100° C.
6) Proteins in the A431 cell homogenates were separated by PAGE and transferred onto a nitrocellulose membrane, and an infrared reading was obtained.

[2] = test system: colorectal cancer LoVo cells; assay: Cell growth inhibition assay (MTS assay), LoVo; assay type: cell-based; settings: Homo sapiens, 48 hours
A431 cells [3] = assay: Cell growth inhibition assay (MTS assay), A431; assay type: cell-based; settings: Homo sapiens
[4] = target: T1, A431 cells EGFR-TK phosphorylation stimulated by EGF; assay: Irreversible inhibition of cellular EGFR-TK (A431 cells, inhibition and recovery); assay type: cell-based; settings: for Inhibition percent(%): A431 cells, 2 hours with compound, supplemented twice by compound-free medium, then EGF; for Activity (irreversible or reversible inhibitor): A431 cellular model test
Procedure: Irreversible Inhibition of Cellular Epidermal Growth Factor Receptor Tyrosine Kinase (EGFR-TK)
1) A431 cells were cultured in a medium prepared by adding 10% FCS into another medium comprising 50% DMEM and 50% F12.
2) The A431 cells grown in six-well plates were cultured in a serum-free medium for 24 hours, during the period the medium was replenished once after 12 hours.
3) A solution containing a compound to be assessed was added to the A431 cells and cultured for 2 hours, supplemented twice by a medium free of the compound, and then EGF (100 ng/well) was added, and cultured for 5 minutes.
4) A431 cell homogenate was prepared by Laemili buffer which comprised 2% sodium dodecyl sulfonate (SDS), 5% 2-mercaptoethanol, 10% glycerol and 5 mM Tris; the pH value is 6.8.
as §1
6) Proteins in the A431 cell homogenates were separated by PAGE, transferred onto a nitrocellulose membrane, and an infrared reading was obtained.

[5] = target: T2, BT474 cells Her-2 receptor TK phosphorylation stimulated by Her-2 (Homo sapiens, UniProt P04626); assay: Inhibition of BT474 cells Her-2 receptor TK phosphorylation; assay type: cell-based
T2 construct: against BT474 cells; endogenous in cells; host or cells: BT474 cells
Procedure: Following literature procedured, inhibitory activity of representative compounds against BT474 cells Her-2 receptor TK phosphorylation stimulated by Her-2 was measured, and partial results are listed in Table 6.

BT474 cells [6] = assay: Cell growth inhibition assay (MTS assay), BT474; settings: Homo sapiens, BT-474, 48 h, read-out: Growth inhibition activity (EC50) BT474
Procedure: (§2) Cell Growth Inhibition Assay (MTS Assay)
(§3) A431: human epithelial adenocarcinoma cell strain; LoVo: human colorectal cancer cell strain; BT474: breast cancer; SK-Br-3: breast cancer; SIT solution (SIGMA); RPMI1640 culture solution; phosphoric acid buffer; Dimethyl Sulphoxide (DMSO); MTS solution (Promega), 96 well cell culture plate, representative anti-cancer compounds.
(§4) The cells were cultured overnight under the condition of 5% CO2 and 37° C. The next day, representative anti-cancer compounds (between 3 and 10 mM) were dissolved by dimethyl sulphoxide (DMSO) as a mother solution. Adriamycin was used as positive control, DMSO was used as negative control. According to experimental design, the mother solution was diluted and added to the 96 well cell culture plate, cultured for 48 hours under the condition of 5% CO2 and 37° C. Subsequently, 20 μL of MTS solution was added to each well of the 96 well cell culture plate and cultured for another 2 to 4 hours under the condition of 5% CO2 and 37° C. Absorbance was read at 490 nm wavelength, and converted into cell survival rate.
(§5) For each concentration, there two measurements were taken and the average was obtained.

SK-Br-3 cells = assay: Cell growth inhibition assay (MTS assay), SK-Br-3; settings: Homo sapiens, SK-BR-3, 48 h, read-out: Growth inhibition activity (EC50) SK-Br-3
Procedure: as §2, §3, §4, §5

A431 cells [7] = assay: A431 cell growth inhibition assay (MTT assay); assay type: cell-based; settings: Homo sapiens
Outline: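 A431 epidermoid carcinoma cells in DMEM/F12 (1:1) with 10% FBS were seeded at 2.5×10^4 cells/mL, attached overnight, then exposed to compound (final 10 μM to 1.52 nM) for 72 h at 37° C, 5% CO2. Viability was read by MTT (0.5 mg/mL, 4 h), formazan dissolved in DMSO, absorbance 490 nm.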

BT474 cells [8] = assay: BT-474 cell growth inhibition assay (SRB assay); assay type: cell-based; settings: Homo sapiens, concentration of 3 μM, 72 h, read-out: Inhibition Percent (%)
Procedure: BT-474 Cell Growth Inhibition Assay (SRB Assay)
BT-474 human breast cancer cell lines were kindly provided by Dr. Changnian Liu, Pharmaron Beijing Co., Ltd.
BT-474 cells were cultured in 37° C., 5% CO2, saturated humidity until logarithmic phase. Discarded culture medium, washed cells once by PBS. Added 1 ml Trypsin/EDTA solution, stood at 37° C. for 5 min, allowed the cells to detach. Added culture medium, adjusted the cells density to 1×10^5 cells/ml.
Day 0, added 100 μl/well cells suspension to 96-well cell culture plates. Incubated overnight to let the cells attach completely.
Day 1, compounds (2 mM in DMSO as stock solution) was diluted to 20 μM in EMEM. Then a fourfold serial dilution was made. These diluted compounds were made as 10× reaction solutions, and the concentration of DMSO was kept at 1%.
Added 80 μl culture medium and 20 μl 10× compound reaction solution to the testing wells, or vehicle control to the control wells. Co-incubated cells with compounds for another 72 h.
Day 3, fixed cellular protein by the addition of 100 μl/well of 10% TCA (diluting from 50% TCA) at 4° C. for 1 h. Rinsed TCA using plate washer, and washed five times using distilled water. Removed the residual wash solution with a piece of absorbent paper. Added 100 μl/well 0.4% SRB solution, allowed a 15-30 min staining period. Removed the SRB, and washed the culture plates five times using 1% acetic acid. Removed the residual wash solution with a piece of absorbent paper. Air-dried the culture plates, dissolved the protein-bound dye with 100 μl/well of 10 mM Tris base solution. Shook the plates until the dye was dissolved completely.

[9] = A-431, A431 cells, MTS, 48 hours, read-out: Growth inhibition activity EC50
[10] = A431 cells EGFR-TK phosphorylation stimulated by EGF (Table 4)
[11] = A431 cells EGFR-TK phosphorylation stimulated by EGF (Table 5)

T2 sequence (P04626 23-1255): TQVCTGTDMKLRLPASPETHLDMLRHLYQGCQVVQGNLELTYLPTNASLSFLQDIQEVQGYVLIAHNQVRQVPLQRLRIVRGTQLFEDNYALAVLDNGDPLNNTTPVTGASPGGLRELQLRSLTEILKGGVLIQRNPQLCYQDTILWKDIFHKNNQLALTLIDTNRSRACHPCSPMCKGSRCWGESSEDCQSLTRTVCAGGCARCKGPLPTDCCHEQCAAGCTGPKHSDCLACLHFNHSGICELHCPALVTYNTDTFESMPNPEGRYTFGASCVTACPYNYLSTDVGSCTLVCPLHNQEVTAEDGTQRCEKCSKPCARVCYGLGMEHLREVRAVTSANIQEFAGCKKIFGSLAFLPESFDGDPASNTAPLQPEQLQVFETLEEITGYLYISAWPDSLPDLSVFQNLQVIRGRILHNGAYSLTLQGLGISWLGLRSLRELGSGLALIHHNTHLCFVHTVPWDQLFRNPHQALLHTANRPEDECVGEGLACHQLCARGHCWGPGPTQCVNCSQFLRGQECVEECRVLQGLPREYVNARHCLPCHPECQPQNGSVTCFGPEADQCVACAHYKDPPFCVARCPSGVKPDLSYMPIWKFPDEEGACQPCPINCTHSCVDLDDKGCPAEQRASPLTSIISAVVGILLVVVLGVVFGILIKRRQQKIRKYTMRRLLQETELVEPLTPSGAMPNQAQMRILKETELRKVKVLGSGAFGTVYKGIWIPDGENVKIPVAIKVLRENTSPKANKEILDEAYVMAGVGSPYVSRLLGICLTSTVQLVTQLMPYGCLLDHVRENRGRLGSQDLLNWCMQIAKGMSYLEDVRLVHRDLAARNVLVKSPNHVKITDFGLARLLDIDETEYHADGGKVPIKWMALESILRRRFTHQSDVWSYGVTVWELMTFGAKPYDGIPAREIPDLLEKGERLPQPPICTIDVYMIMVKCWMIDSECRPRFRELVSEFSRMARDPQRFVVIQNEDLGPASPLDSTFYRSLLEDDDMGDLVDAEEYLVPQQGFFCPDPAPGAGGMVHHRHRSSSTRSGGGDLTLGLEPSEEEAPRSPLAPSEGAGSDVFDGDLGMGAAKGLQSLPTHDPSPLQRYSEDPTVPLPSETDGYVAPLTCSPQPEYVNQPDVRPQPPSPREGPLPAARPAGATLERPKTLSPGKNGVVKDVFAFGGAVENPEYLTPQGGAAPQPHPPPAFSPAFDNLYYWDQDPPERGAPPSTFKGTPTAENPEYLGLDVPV
T1 sequence (P00533 25-1210): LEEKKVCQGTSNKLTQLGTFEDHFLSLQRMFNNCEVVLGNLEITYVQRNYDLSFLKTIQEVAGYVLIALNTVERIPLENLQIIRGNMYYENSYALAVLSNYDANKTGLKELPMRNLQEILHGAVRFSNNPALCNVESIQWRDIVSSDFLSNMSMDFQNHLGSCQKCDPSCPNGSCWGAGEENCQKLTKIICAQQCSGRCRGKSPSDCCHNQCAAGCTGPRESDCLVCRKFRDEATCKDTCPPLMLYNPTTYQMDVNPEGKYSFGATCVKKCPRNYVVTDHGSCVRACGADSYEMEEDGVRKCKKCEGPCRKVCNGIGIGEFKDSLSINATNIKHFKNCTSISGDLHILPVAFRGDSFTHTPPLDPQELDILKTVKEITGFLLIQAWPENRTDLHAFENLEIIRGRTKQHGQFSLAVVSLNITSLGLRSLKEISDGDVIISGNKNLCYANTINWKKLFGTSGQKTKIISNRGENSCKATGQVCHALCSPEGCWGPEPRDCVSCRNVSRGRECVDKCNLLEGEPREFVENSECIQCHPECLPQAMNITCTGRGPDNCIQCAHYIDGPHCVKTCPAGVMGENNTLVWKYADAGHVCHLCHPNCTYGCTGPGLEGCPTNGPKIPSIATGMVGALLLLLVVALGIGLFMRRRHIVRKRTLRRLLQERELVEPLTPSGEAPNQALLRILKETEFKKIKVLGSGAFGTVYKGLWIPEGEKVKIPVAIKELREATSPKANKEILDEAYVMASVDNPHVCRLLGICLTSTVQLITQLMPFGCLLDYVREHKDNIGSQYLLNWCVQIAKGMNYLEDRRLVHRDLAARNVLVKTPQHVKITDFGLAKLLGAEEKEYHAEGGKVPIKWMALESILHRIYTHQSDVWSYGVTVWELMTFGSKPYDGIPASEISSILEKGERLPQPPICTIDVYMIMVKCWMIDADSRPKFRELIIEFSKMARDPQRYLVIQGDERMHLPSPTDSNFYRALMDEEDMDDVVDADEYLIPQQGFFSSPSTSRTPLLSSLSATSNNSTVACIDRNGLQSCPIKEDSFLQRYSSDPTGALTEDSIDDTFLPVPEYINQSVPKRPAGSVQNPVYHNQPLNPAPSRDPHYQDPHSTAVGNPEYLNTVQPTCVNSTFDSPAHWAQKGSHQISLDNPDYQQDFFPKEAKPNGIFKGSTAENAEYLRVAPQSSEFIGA

Compound | inhibition at 3 µM [1] [%] | EC50 [2] [nM] | EC50 (A431 cells [3]; [9]) [µM] | EC50 [5] [nM] | EC50 (BT474 cells [6]) [nM] | EC50 (SK-Br-3 cells) [nM] | further results
C#Cc1cccc(Nc2ncnc3cc(OC)c(NC(=O)C=C4CCN(C)CC4)cc23)c1 [Example 51, N-(4-(3-ethynylphenylamino)-7-methoxyquinazolin-6-yl)-2-(1-methylpiperidin-4-ylidene)acetamide] | 94 | 7600 | 0.12 | – | – | – | –
O=C(C=C1CCNCC1)Nc1ccc2ncnc(Nc3ccc(F)c(Cl)c3)c2c1 [Example 32, N-(4-(3-chloro-4-fluorophenylamino)quinazolin-6-yl)-2-(piperidin-4-ylidene)acetamide] | 87 | – | 0.6 | – | – | – | EC50 [1, 10]: 90 nM; EC50 [1, 11]: 90 nM; Inhibition percent(%) [4]: 78%; Activity (irreversible or reversible inhibitor) [4]: Irreversible inhibitor
COc1cc2ncnc(Nc3ccc(OCc4ccccn4)c(Cl)c3)c2cc1NC(=O)C=C1CCNCC1 [Example 108, N-(4-(3-chloro-4-(pyridin-2-ylmethoxy)phenylamino)-7-methoxyquinazolin-6-yl)-2-(piperidin-4-ylidene)acetamide] | – | 7000 | 3 | 180 | 1570 | 530 | –
CCOc1cc2ncc(C#N)c(Nc3cccc(Br)c3)c2cc1NC(=O)C=C1CCNCC1 [Example 154, N-(4-(3-bromophenylamino)-3-cyano-7-ethoxyquinolin-6-yl)-2-(piperidin-4-ylidene)acetamide] | – | 3100 | 0.11 | – | – | – | –
CCOc1cc2ncc(C#N)c(Nc3ccc(F)c(Cl)c3)c2cc1NC(=O)C=C1CCNCC1 [Example 150, N-(4-(3-chloro-4-fluorophenylamino)-3-cyano-7-ethoxyquinolin-6-yl)-2-(piperidin-4-ylidene)acetamide] | 46 | – | – | 260 | – | – | EC50 (A431 cells [7]; A-431, 72 hours (Table 11)): 170 nM; inhibition at 3 µM (A431 cells [7]; A-431, concentration of 3 μM, 72 hours, read-out: Inhibition Percent (%)): 95%; inhibition at 3 µM (BT474 cells [8]): 56%
COc1cc2ncnc(Nc3cccc(Br)c3)c2cc1NC(=O)C=C1CCNCC1 [Example 38, N-(4-(3-bromophenylamino)-7-methoxyquinazolin-6-yl)-2-(piperidin-4-ylidene)acetamide] | 94 | 1600 | 0.014 | – | – | – | –
O=C(C=C1CCNCC1)Nc1ccc2ncnc(Nc3cccc(Br)c3)c2c1 [Example 33, N-(4-(3-bromophenylamino)quinazolin-6-yl)-2-(piperidin-4-ylidene)acetamide] | 94 | – | 0.1 | – | – | – | EC50 [1, 10]: 38 nM; EC50 [1, 11]: 38 nM; Inhibition percent(%) [4]: 89%; Activity (irreversible or reversible inhibitor) [4]: Irreversible inhibitor
CS(=O)(=O)CCNCc1ccc(-c2ccc3ncnc(Nc4ccc(OCc5cccc(F)c5)c(Cl)c4)c3c2)o1 [Lapatinib, reference compound] | – | – | – | – | 120 | 70 | EC50 (A431 cells [3]; A-431, 48 h, read-out: Growth inhibition activity EC50 (μM)): 1.19 µM
COc1cccc2c1C(=O)c1c(O)c3c(c(O)c1C2=O)C[C@@](O)(C(=O)CO)C[C@@H]3O[C@H]1C[C@H](N)[C@H](O)[C@H](C)O1 [Adriamycin, reference compound] | – | 1500 | – | – | – | – | –
COCCN1CCC(=CC(=O)Nc2cc3c(Nc4ccc(F)c(Cl)c4)ncnc3cc2OC)CC1 [Example 73, N-(4-(3-chloro-4-fluorophenylamino)-7-methoxyquinazolin-6-yl)-2-(1-(2-methoxyethyl)piperidin-4-ylidene)acetamide] | 82 | 8000 | 0.63 | 1700 | 21500 | 2310 | –
COc1cc2ncnc(Nc3ccc(F)c(Cl)c3)c2cc1NC(=O)C=C1CCN(C)CC1 [Example 72, N-(4-(3-chloro-4-fluorophenylamino)-7-methoxyquinazolin-6-yl)-2-(1-methylpiperidin-4-ylidene)acetamide] | 97 | 1800 | 0.09 | 820 | 1310 | 800 | –
COc1cc2ncnc(Nc3ccc(F)c(Cl)c3)c2cc1NC(=O)C=C1CCNCC1 [Example 43, N-(4-(3-chloro-4-fluorophenylamino)-7-methoxyquinazolin-6-yl)-2-(piperidin-4-ylidene)acetamide] | 91 | 1500 | 0.11 | 350 | 610 | 520 | –
C#Cc1cccc(Nc2ncnc3cc(OC)c(NC(=O)C=C4CCNCC4)cc23)c1 [Example 42, N-(4-(3-ethynylphenylamino)-7-methoxyquinazolin-6-yl)-2-(piperidin-4-ylidene)acetamide] | – | 3000 | 0.12 | – | – | – | –
COc1cc2ncnc(Nc3ccc(OCc4cccc(F)c4)c(Cl)c3)c2cc1NC(=O)C=C1CCNCC1 [Example 105, N-(4-(4-(3-fluorobenzyloxy)-3-chlorophenylamino)-7-methoxyquinazolin-6-yl)-2-(piperidin-4-ylidene)acetamide] | 44 | – | – | 480 | – | – | –
